Results published in PubChem BioAssay (NCI).
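All cell lines were grown in 96-well plates and treated with compound for 48 hours. Abbreviation: GI50, concentration required for 50% inhibition of growth. The concentration for full growth arrest is given as TGI.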

Legend:
Assay in all cases: NCI-60 cell line screen, 48 h
UACC-257 melanoma = system: UACC-257 melanoma
HT29 colon = system: HT29 colon
SNB-19 CNS = system: SNB-19 CNS
MDA-MB-231 breast = system: MDA-MB-231 breast
U251 CNS = system: U251 CNS
OVCAR-5 ovarian = system: OVCAR-5 ovarian
SN12C renal = system: SN12C renal
HS 578T breast = system: HS 578T breast
786-0 renal = system: 786-0 renal
NCI-H522 lung = system: NCI-H522 lung
TK-10 renal = system: TK-10 renal
MCF7 breast = system: MCF7 breast
MOLT-4 leukemia = system: MOLT-4 leukemia
SF-539 CNS = system: SF-539 CNS
SF-295 CNS = system: SF-295 CNS
HCC-2998 colon = system: HCC-2998 colon
OVCAR-3 ovarian = system: OVCAR-3 ovarian
SK-MEL-28 melanoma = system: SK-MEL-28 melanoma
CCRF-CEM leukemia = system: CCRF-CEM leukemia
UO-31 renal = system: UO-31 renal
DU-145 prostate = system: DU-145 prostate
HL-60(TB) leukemia = system: HL-60(TB) leukemia
RPMI-8226 leukemia = system: RPMI-8226 leukemia
OVCAR-4 ovarian = system: OVCAR-4 ovarian
NCI/ADR-RES ovarian = system: NCI/ADR-RES ovarian
HCT-15 colon = system: HCT-15 colon
PC-3 prostate = system: PC-3 prostate
NCI-H23 lung = system: NCI-H23 lung
NCI-H460 lung = system: NCI-H460 lung
A549 NSCLC = system: A549 NSCLC
LOX IMVI melanoma = system: LOX IMVI melanoma
COLO 205 colon = system: COLO 205 colon
HOP-62 NSCLC = system: HOP-62 NSCLC
OVCAR-8 ovarian = system: OVCAR-8 ovarian
A498 renal = system: A498 renal
SR leukemia = system: SR leukemia
KM12 colon = system: KM12 colon
T-47D breast = system: T-47D breast
MALME-3M melanoma = system: MALME-3M melanoma
EKVX NSCLC = system: EKVX NSCLC
BT-549 breast = system: BT-549 breast
MDA-MB-435 = system: MDA-MB-435
SW-620 colon = system: SW-620 colon
SK-MEL-2 melanoma = system: SK-MEL-2 melanoma
SF-268 CNS = system: SF-268 CNS
NCI-H226 lung = system: NCI-H226 lung
HCT-116 colon = system: HCT-116 colon
SNB-75 CNS = system: SNB-75 CNS
K-562 leukemia = system: K-562 leukemia
ACHN renal = system: ACHN renal
M14 melanoma = system: M14 melanoma
IGROV1 ovarian = system: IGROV1 ovarian
CAKI-1 renal = system: CAKI-1 renal
HOP-92 NSCLC = system: HOP-92 NSCLC
SK-MEL-5 melanoma = system: SK-MEL-5 melanoma
RXF 393 renal = system: RXF 393 renal
UACC-62 melanoma = system: UACC-62 melanoma
SK-OV-3 ovarian = system: SK-OV-3 ovarian

Cc1nc(N)c(N2CCN(S(N)(=O)=O)CC2)c(=O)[nH]1
TGI (UACC-257 melanoma): > 100000 nM | TGI (HT29 colon): > 100000 nM | TGI (SNB-19 CNS): > 100000 nM | TGI (MDA-MB-231 breast): > 100000 nM | TGI (U251 CNS): > 100000 nM | TGI (OVCAR-5 ovarian): > 100000 nM | TGI (SN12C renal): > 100000 nM | TGI (HS 578T breast): > 100000 nM | TGI (786-0 renal): > 100000 nM | TGI (NCI-H522 lung): > 100000 nM | TGI (TK-10 renal): > 100000 nM | TGI (MCF7 breast): > 100000 nM | TGI (MOLT-4 leukemia): > 100000 nM | TGI (SF-539 CNS): > 100000 nM | TGI (SF-295 CNS): > 100000 nM | TGI (HCC-2998 colon): > 100000 nM | TGI (OVCAR-3 ovarian): > 100000 nM | TGI (SK-MEL-28 melanoma): > 100000 nM | TGI (CCRF-CEM leukemia): > 100000 nM | TGI (UO-31 renal): > 100000 nM | TGI (DU-145 prostate): > 100000 nM | TGI (HL-60(TB) leukemia): > 100000 nM | TGI (RPMI-8226 leukemia): > 100000 nM | TGI (OVCAR-4 ovarian): > 100000 nM | TGI (NCI/ADR-RES ovarian): > 100000 nM | TGI (HCT-15 colon): > 100000 nM | TGI (PC-3 prostate): > 100000 nM | TGI (NCI-H23 lung): > 100000 nM | TGI (NCI-H460 lung): > 100000 nM | TGI (A549 NSCLC): > 100000 nM | TGI (LOX IMVI melanoma): > 100000 nM | TGI (COLO 205 colon): > 100000 nM | TGI (HOP-62 NSCLC): > 100000 nM | TGI (OVCAR-8 ovarian): > 100000 nM | TGI (A498 renal): > 100000 nM | TGI (SR leukemia): > 100000 nM | TGI (KM12 colon): > 100000 nM | TGI (T-47D breast): > 100000 nM | TGI (MALME-3M melanoma): > 100000 nM | TGI (EKVX NSCLC): > 100000 nM | TGI (BT-549 breast): > 100000 nM | TGI (MDA-MB-435): > 100000 nM | TGI (SW-620 colon): > 100000 nM | TGI (SK-MEL-2 melanoma): > 100000 nM | TGI (SF-268 CNS): > 100000 nM | TGI (NCI-H226 lung): > 100000 nM | TGI (HCT-116 colon): > 100000 nM | TGI (SNB-75 CNS): > 100000 nM | TGI (K-562 leukemia): > 100000 nM | TGI (ACHN renal): > 100000 nM | TGI (M14 melanoma): > 100000 nM

CC/C=C\C[C@@H]1C/C=C2/C(=O)C=C[C@H]2C/C=C\CCCC(=O)O1
GI50 (UACC-257 melanoma): 1370 nM | TGI (UACC-257 melanoma): 3390 nM | GI50 (HT29 colon): 267 nM | TGI (HT29 colon): 677 nM | GI50 (SNB-19 CNS): 1250 nM | TGI (SNB-19 CNS): 3360 nM | GI50 (MDA-MB-231 breast): 1560 nM | TGI (MDA-MB-231 breast): 6590 nM | GI50 (U251 CNS): 365 nM | TGI (U251 CNS): 1510 nM | GI50 (OVCAR-5 ovarian): 1510 nM | TGI (OVCAR-5 ovarian): 3780 nM | GI50 (SN12C renal): 545 nM | TGI (SN12C renal): 4010 nM | GI50 (HS 578T breast): 2840 nM | TGI (HS 578T breast): 9110 nM | GI50 (786-0 renal): 818 nM | TGI (786-0 renal): 2180 nM | GI50 (NCI-H522 lung): 231 nM | TGI (NCI-H522 lung): 737 nM | GI50 (TK-10 renal): 1480 nM | TGI (TK-10 renal): 3140 nM | GI50 (MCF7 breast): 356 nM | TGI (MCF7 breast): 2120 nM | GI50 (MOLT-4 leukemia): 551 nM | TGI (MOLT-4 leukemia): 2710 nM | GI50 (SF-539 CNS): 533 nM | TGI (SF-539 CNS): 2970 nM | GI50 (SF-295 CNS): 1180 nM | TGI (SF-295 CNS): 2730 nM | GI50 (HCC-2998 colon): 259 nM | TGI (HCC-2998 colon): 533 nM | GI50 (IGROV1 ovarian): 910 nM | TGI (IGROV1 ovarian): 3930 nM | GI50 (OVCAR-3 ovarian): 428 nM | TGI (OVCAR-3 ovarian): 1380 nM | GI50 (SK-MEL-28 melanoma): 424 nM | TGI (SK-MEL-28 melanoma): 1850 nM | GI50 (CCRF-CEM leukemia): 240 nM | TGI (CCRF-CEM leukemia): 1580 nM | GI50 (UO-31 renal): 929 nM | TGI (UO-31 renal): 2230 nM | GI50 (DU-145 prostate): 362 nM | TGI (DU-145 prostate): 1280 nM | GI50 (HL-60(TB) leukemia): 277 nM | TGI (HL-60(TB) leukemia): 716 nM | GI50 (CAKI-1 renal): 420 nM | TGI (CAKI-1 renal): 1770 nM | GI50 (RPMI-8226 leukemia): 331 nM | TGI (RPMI-8226 leukemia): 1330 nM | GI50 (OVCAR-4 ovarian): 1040 nM | TGI (OVCAR-4 ovarian): 2380 nM | GI50 (NCI/ADR-RES ovarian): 349 nM | TGI (NCI/ADR-RES ovarian): 18700 nM | GI50 (HCT-15 colon): 242 nM | TGI (HCT-15 colon): 865 nM | GI50 (PC-3 prostate): 535 nM | TGI (PC-3 prostate): 2390 nM | GI50 (NCI-H23 lung): 993 nM | TGI (NCI-H23 lung): 3200 nM | GI50 (HOP-92 NSCLC): 2250 nM | TGI (HOP-92 NSCLC): 4970 nM | GI50 (SK-MEL-5 melanoma): 348 nM | TGI (SK-MEL-5 melanoma): 1430 nM | GI50 (RXF 393 renal): 492 nM | TGI (RXF 393 renal): 1730 nM | GI50 (NCI-H460 lung): 2670 nM | TGI (NCI-H460 lung): 7450 nM | GI50 (A549 NSCLC): 526 nM | TGI (A549 NSCLC): 2200 nM | GI50 (LOX IMVI melanoma): 145 nM | TGI (LOX IMVI melanoma): 323 nM | GI50 (COLO 205 colon): 284 nM | TGI (COLO 205 colon): 1050 nM | GI50 (HOP-62 NSCLC): 1070 nM | TGI (HOP-62 NSCLC): 3680 nM | GI50 (OVCAR-8 ovarian): 342 nM | TGI (OVCAR-8 ovarian): 2370 nM | GI50 (A498 renal): 1810 nM | TGI (A498 renal): 3300 nM | GI50 (SR leukemia): 170 nM | TGI (SR leukemia): 731 nM | GI50 (KM12 colon): 262 nM | TGI (KM12 colon): 767 nM | GI50 (T-47D breast): 1600 nM | TGI (T-47D breast): 6280 nM | GI50 (MALME-3M melanoma): 1180 nM | TGI (MALME-3M melanoma): 4650 nM | GI50 (EKVX NSCLC): 1100 nM | TGI (EKVX NSCLC): 2440 nM | GI50 (BT-549 breast): 890 nM | TGI (BT-549 breast): 2230 nM | GI50 (MDA-MB-435): 250 nM | TGI (MDA-MB-435): 845 nM | GI50 (SW-620 colon): 483 nM | TGI (SW-620 colon): 2020 nM | GI50 (SK-MEL-2 melanoma): 1800 nM | TGI (SK-MEL-2 melanoma): 4230 nM | GI50 (SF-268 CNS): 1340 nM | TGI (SF-268 CNS): 3670 nM | GI50 (UACC-62 melanoma): 735 nM | TGI (UACC-62 melanoma): 2660 nM | GI50 (HCT-116 colon): 133 nM | TGI (HCT-116 colon): 320 nM | GI50 (SK-OV-3 ovarian): 2490 nM | TGI (SK-OV-3 ovarian): 7940 nM | GI50 (SNB-75 CNS): 1180 nM | TGI (SNB-75 CNS): 2600 nM | GI50 (K-562 leukemia): 239 nM | TGI (K-562 leukemia): 724 nM | GI50 (ACHN renal): 183 nM | TGI (ACHN renal): 372 nM | GI50 (M14 melanoma): 237 nM | TGI (M14 melanoma): 1030 nM
